Assay: gradient 5% acetonitrile 3 min, to 50% in 2 min, to 85% in 15 min, held 3 min, 100 µL/min
Settings: column: Zorbax Extend-C18 2.1 x 50 mm; eluents: water / acetonitrile, 0.1% formic acid
In short: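 Values are retention times taken from adduct peaks that software picked and an analyst inspected. The pure standards were run as mixtures of ~100 molecules on HPLC linked to a quadrupole time-of-flight mass spectrometer, in positive and negative ionization mode. A Zorbax Extend-C18 column (2.1 × 50 mm, 1.8 μm) was used at 100 μL/min with water and acetonitrile, each including 0.1% formic acid.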

Structure (SMILES)	RP-LC retention time [s]
COc1ccc(NC(=O)Cn2c(N3CCCCC3)nc(C)cc2=O)cc1	661
Cc1ccccc1CC(=O)NC1CCN(c2ccc(F)cc2)C1=O (stereo not drawn)	810
O=C(NCc1ccccc1)N1CCN(c2ncccc2-c2nnc(C3CC3)o2)CC1	738
O=C(c1ccc2nc[nH]c2c1)N1CCCn2nc(-c3ccc(Cl)cc3)cc2C1	643
CCC(=O)Nc1ccc(CCc2nc3ccc(C(=O)NCc4ccc(C)o4)cc3[nH]2)cc1	638
C=CCOC(=O)/C=C\C(=O)NC(N)=O	659
COc1ccc2nc(NC(=O)Cn3nc(C(=O)N4CCOCC4)c4ccccc43)sc2c1	761
CC(C)n1c(=O)c(NCc2ccccc2Br)nc2ccncc21	699
Cc1ccc(N2CC(c3noc(-c4ccc(C)cc4C)n3)CC2=O)cc1 (stereo not drawn)	1190
O=C(NC1CCCCC1)N1CCN(c2ncccc2-c2nnc(C3CC3)o2)CC1	745
Cc1[nH]c(C)c(S(=O)(=O)N2CCC(C(=O)Nc3ccccc3F)CC2)c1C(=O)N1CCCC1	720
CCOC(=O)C1=C(CN2CCCCC2)NC(=O)NC1c1ccc(OC(C)C)cc1 (stereo not drawn)	646
O=C(O)c1cccc(Nc2c(-c3cccc(Br)c3)nc3cnccn23)c1	748
CCOC(=O)c1[nH]c(C)c(CN(Cc2ccco2)C(=O)Nc2ccc(F)cc2)c1C	936
CC1(C)CC(=O)C2=C(C1)N=C1SCCC(=O)N1C2c1ccc(Cl)cc1 (stereo not drawn)	877
CCn1cc(C)c(C(=O)O)c1CC(=O)NC1CCCCCC1	814
Cc1ccc(Sc2nccnc2N2CCCC(C(=O)N3CCN(c4ccc(C)cc4)CC3)C2)cc1 (stereo not drawn)	1290
Cc1sc(-c2cc(C(F)(F)F)[nH]n2)cc1S(=O)(=O)N1CCN(C2CCCCC2)CC1	726
Cc1ccc(NC(=O)N2CCC(n3c(-c4ccco4)nc4cccnc43)C2)cc1F (stereo not drawn)	815
COc1ccc(-c2noc(Cn3c(=O)n(CC(C)C)c(=O)c4ccccc43)n2)cc1OC	1050
Cc1noc(-c2cc(=O)n(CC(=O)Nc3ccccc3)c3ccccc23)n1	840
CC(C)(C)c1noc(-c2ccnc(-n3cnc(C(=O)N4CCc5ccccc5C4)c3)c2)n1	1080

Structure (SMILES)	RP-LC retention time [s]
CCc1ccc(Nc2nc(C(=O)NCCc3cnc[nH]3)nc3ccccc23)cc1	603
COc1ccccc1-c1nnc(-c2cccc(S(=O)(=O)N3CCOCC3)c2)o1	802
O=C1NC2CCCCC2NC1CC(=O)N1CCN(C(c2ccccc2)c2ccccc2)CC1 (stereo not drawn)	586
COc1cccc2cc(C(=O)NCC3CCN(S(=O)(=O)C4CC4)CC3)oc12	754
Cn1cc2nc(SCc3cc(F)cc(F)c3)n(Cc3ccc(F)cc3)c(=O)c2n1	1070
O=C(NCC1CCS(=O)(=O)C1)c1cc(-c2cccs2)[nH]n1 (stereo not drawn)	607
CN(C)S(=O)(=O)c1ccc2c(c1)N(CC(=O)N1CCc3ccccc31)C(=O)C1CCCCN21 (stereo not drawn)	960
Cn1nc(-c2nc(C3CC3)no2)c2c1CCN(C(=O)c1cc3c(s1)CCCC3)C2	1010
O=C(C1CC(=O)N(c2n[nH]c3cccc(F)c23)C1)N1CCN(c2ccccn2)CC1 (stereo not drawn)	582
O=C(c1ccc(Cl)s1)N1CCN(CC(O)c2cccs2)CC1 (stereo not drawn)	572
CC1CCN(C(=O)CN2C(=O)C3CCCCN3c3ccc(S(=O)(=O)N4CCCC4)cc32)CC1 (stereo not drawn)	937
Cc1ccccc1NC(=O)N1CCC(c2nc(C(=O)N3CCOCC3)c(C)o2)CC1	673
COc1ccc(C(=O)NCCc2sc(-c3cccc(F)c3)nc2C)c(OC)c1	921
COc1ccc(CN(C)Cc2cc(=O)n3cc(Cl)ccc3n2)cc1OC	606
O=c1ccn(-c2cccc(F)c2)nc1-c1nc(-c2ccc(OCc3ccccc3)cc2)no1	1070
CCc1cccc2c3c([nH]c12)[C@@](CC)(CC(=O)O)OCC3	925
Cc1nc(C2CCCCN2C(=O)c2ccco2)n[nH]1 (stereo not drawn)	593
CCN1CCN(C(=O)C2CCCN(c3ncnc4c3nc3n4CCCCC3)C2)CC1 (stereo not drawn)	575
Clc1cccc(-c2nnc(-c3nc(N4CCOCC4)c4ccccc4n3)o2)c1	973
CCc1ccc(NC(=O)N2CCC(n3cnc4cc(Cl)ccc4c3=O)CC2)cc1	877
CC(C)C(=O)N1CCCn2nc(-c3cccnc3)cc2C1	579
CCCn1cc(S(=O)(=O)Nc2cc(F)ccc2C)c2cccnc21	926

Structure (SMILES)	RP-LC retention time [s]
CN(C)c1ccc(C(=O)N2CCCC2c2nc(-c3ccccc3)no2)cc1 (stereo not drawn)	986
Cc1cccc(Cn2nc3n(CCC(=O)NC(C)C)c(=O)c4ccccc4n3c2=O)c1	851
CCc1nc(-c2ccc(-c3noc(COc4ccccc4)n3)cc2)cs1	1290
O=C(NC1CCCCCC1)C1CCCN(c2ccnc(-c3ccc(F)cc3)n2)C1 (stereo not drawn)	730
CCc1nnc(-c2ccc3ccn(CC(=O)NCc4ccccc4OC)c3c2)o1	851
COc1ccc(-c2nc(NC(=O)c3cccnc3)sc2C)cc1	800
Cc1ccc(=O)n(CC(=O)NCc2cccs2)n1	591
COCc1nncn1C1CN(C(=O)Cc2ccc(Cl)cc2)C1	642
Cc1ncsc1CN1CCC2(CC1)c1[nH]c3ccccc3c1CCN2C	538
COc1ccc(Cl)cc1NC(=O)N1CCCC(C)(C(=O)NCc2ccc(C)cc2)C1 (stereo not drawn)	982
COc1cccc(CNC(=O)Nc2ccc(-c3nc(-c4ccc(C)cc4C)co3)cc2)c1	1170
O=C(CN1CCN(Cc2ccc(F)cc2)C1=O)NCc1ccccc1C(F)(F)F	866
CC1CCN(C(=O)CN2c3ccc(F)cc3-c3ccccc3S2(=O)=O)CC1	982
COc1ccc(-c2noc(-c3cccn4c(=O)c5ccccc5nc34)n2)cc1OC	994
COc1cc([C@@H]2c3cc4c(cc3[C@H](O)[C@@H](CO)[C@@H]2C(=O)N2CCN(c3ccccc3)CC2)OCO4)cc(OC)c1OC	749
Cc1ccc(NC(=O)C2CCN(S(=O)(=O)c3ccc4c(c3)CCCC(=O)N4)CC2)cc1C	814
O=C(NC1CC1)c1cc(-c2cccs2)n(C2CCS(=O)(=O)C2)n1 (stereo not drawn)	710
Cc1nc(-c2ccc3c(c2)n(CC(=O)Nc2ccc(S(N)(=O)=O)cc2)c(=O)n3C(C)C)no1	707
Cn1nc(C2CCN(C(=O)c3ccc4ccccc4n3)CC2)c2c1CCOC2	669
O=C(Cn1c(=O)oc2ccccc21)N1CCC(c2noc(-c3cccnc3)n2)C1 (stereo not drawn)	702
COC(=O)c1c(-c2ccc(F)cc2)noc1NCc1ccccn1	771
CCCc1cc(N2CCN(C(=O)c3ccc4c(c3)OCO4)CC2)nc2nnc(CC)n12	650

Structure (SMILES)	RP-LC retention time [s]
O=C(NC1CCCCC1)C1CCN(c2cncnc2N2CCCC2)CC1	637
Cc1noc(-c2ccc(NC(=O)COc3ccc(Cl)cc3Cl)cc2)n1	1030
O=C1NC(=S)S/C1=C\c1ccccc1C(=O)O	835
COc1cccc(S(=O)(=O)N2CCOCC2)c1	708
N#Cc1ccc(C(=O)N2CCC(c3cc(N)on3)CC2)cc1	641
CCn1c(CCc2ccccc2NS(=O)(=O)c2cccc3nsnc23)nc2ccccc21	713
Cn1c(=O)n(CC(=O)O)c(=O)c2c1nc1n2CCCN1c1ccc(Br)cc1	751
Cc1sc(NC(=O)C2CCCO2)nc1-c1ccc2c(c1)NC(=O)CO2 (stereo not drawn)	732
O=C(NCCC1CCN(C(=O)Nc2cc(F)cc(F)c2)CC1)c1ccoc1	798
Cc1cc(C2CCCN2C(=O)Nc2ccc(C)c(C)c2)on1 (stereo not drawn)	728
CC(C)c1noc(-c2cccnc2N2CCCN(Cc3ccc(F)cc3)CC2)n1	712
CS(=O)(=O)Nc1ccc(-c2noc(CN3C(=O)COc4ccc(Cl)cc43)n2)cc1	879
O=C(C1CC(=O)N(c2n[nH]c3cccc(F)c23)C1)N1CCN(c2ccc(F)cc2)CC1 (stereo not drawn)	740
O=C(Cc1csc(NC(=O)c2cnccn2)n1)NCCc1c[nH]c2ccccc12	654
Cn1c(N2CCN(C(=O)c3ccc(F)c(Cl)c3)CC2)cc(=O)n(C)c1=O	686
O=C(CSc1ccc(S(=O)(=O)C2CCCCC2)nn1)NCc1cc(F)cc(F)c1	833
CC(=O)N1CCN(C(=O)c2ccc(O)cc2)CC1	515
Cc1ccc(S(=O)(=O)n2nc(-c3cccc(C)c3)nc2N)cc1	957
Cc1ccc2nc(C(=O)N3CCN(c4ccc(Cl)cc4)CC3)cn2c1	738
Cn1cc(CCN2CCC(C(=O)NCc3cccc(F)c3)CC2)c2cccnc21	599
Cc1cccnc1NC(=O)C1CCN(S(=O)(=O)c2cc(C(=O)N3CCOCC3)cs2)CC1	606
Cc1cc(C)cc(NS(=O)(=O)c2cc3c(s2)CCN(C(=O)C2CCC2)C3)c1	962

From the METLIN SMRT retention time set (Domingo-Almenara et al. 2019)
